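Dose response: 5 concentrations. Exposure: 48 h. Format: 96-well plates. Endpoint: linear interpolation; highest concentration if not reached. At the GI50, growth is halved. TGI: total growth inhibition.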
Experiments:
Experiment in all cases: NCI tumour cell line growth inhibition, 48 h
[1] = system: SN12C renal
[2] = system: OVCAR-4 ovarian
[3] = system: ACHN renal
[4] = system: NCI-H460 lung
[5] = system: CAKI-1 renal
[6] = system: MDA-MB-231 breast
[7] = system: SNB-19 CNS
[8] = system: SNB-75 CNS

SMILES	GI50 [1] [µM]	TGI [1] [µM]	GI50 [2] [µM]	TGI [2] [µM]	GI50 [3] [µM]	TGI [3] [µM]	GI50 [4] [µM]	TGI [4] [µM]	GI50 [5] [µM]	TGI [5] [µM]	GI50 [6] [µM]	TGI [6] [µM]	GI50 [7] [µM]	TGI [7] [µM]	GI50 [8] [µM]	TGI [8] [µM]
CN(C)CC#Cc1cccc(C(=O)c2cnn(-c3ccc(F)cc3)c2N)c1	> 25	> 25	> 17.4	> 25	> 25	> 25	> 25	> 25	> 25	> 25	> 25	> 25	> 25	> 25	19.6	> 25
N#CC(C#N)=CN1CCN(C(=O)c2ccccc2)C1=S	24.6	65.8	59.3	> 100	18.8	43.6	20	66.5	28.7	89.4	36.1	> 100	> 100	> 100	> 100	> 100
CCOc1cc2ncc(C#N)c(Nc3ccc(F)c(Cl)c3)c2cc1NC(=O)/C=C/CN(C)C	0.173	> 6.03	0.235	4.1	0.0232	1.8	0.655	4.26	0.0278	0.952	0.882	5.07	1.61	> 10	0.228	> 3.71
CCOC(=O)[C@@H](C)C[C@H](Cc1ccccc1)NC(=O)c1csc([C@@H](C[C@H](C(C)C)N(C)C(=O)[C@H](CCC(C)C)NC(=O)[C@H]2CCCCN2C)OC(C)=O)n1	0.0159	4.59	0.497	> 33.3			0.00407	3.78			0.00821	0.398	< 0.00333	10.7		
c1cncc(C(Nc2cccc3cccnc23)Nc2cccc3cccnc23)c1		> 100				> 100		> 100		> 100		> 100		> 100		> 100
O=C(N/N=C/c1cc(Br)cc(Br)c1[O-])c1ccccc1O.O=C(N/N=C/c1cc(Br)cc(Br)c1[O-])c1ccccc1O.[Mn+2]	1.56	16.5		17.5		15.1		13.9		11.9				36		15.5
Cc1nc(NC(=S)Nc2ccc(F)cc2)sc1C(=O)NNC(=S)Nc1ccc(F)cc1	10.2	32.1	5.55	60			3.85	16.2	11.4	44.9	10.4	25.1	8.39	66.5	15.3	54.7
COC[C@H]1OC(=O)c2coc3c2[C@@]1(C)C1=C(C3=O)[C@@H]2CCC(=O)[C@@]2(C)C[C@H]1OC(C)=O		> 100	18.6	> 100		> 100		> 100			14.4	> 100		> 100		
COc1ccc(C(=O)/C=C/c2cc(C(=O)c3cc(OC)c(OC)c(OC)c3)ccc2OC)cc1					3.19	> 100					3.69	> 100	4.54	> 100	4.75	33.7
Cc1nc(Nc2ccc(F)c(Cl)c2)sc1C(=O)O	1.53	3.56	1.74	9.12	1.52	3.24	2.07	4.74	1.9	7.34			1.93	5.22	1.18	4.31
O=C(Nc1cc(Cl)ccc1O)c1cccc(NC2=C(Cl)C(=O)N(Cc3ccccc3)C2=O)c1	16	33.6	55.5	> 100	35.6	> 100	18.6	40.9	22.5	68	16.8	40.3	48.4	> 100		
Cc1c(Cl)cccc1NC(=O)c1sc2nc3c(cc2c1N)CCCCCC3	0.408	> 50	0.936	15.2	0.465	> 50	0.187	> 50			0.356	> 50	0.258	28.5		
NC1CCC[C@@H](O)[C@H]1O (some centres undefined)		> 100				> 100		> 100		> 100		> 100		> 100		> 100
Cc1cc(S(=O)(=O)NC#N)c(S/C(=N\Nc2ccc([N+](=O)[O-])cc2)c2ccccc2)cc1Cl	20.9	52.3	13.9	31.8	18	41.5	18.7	36.3	21.1	45.8			38	> 100	20.4	> 100

— PubChem BioAssay (NCI)
